Read-outs that look alike come from different tables or passages of the source. Starred links: 1 amine or outer side, 2 acyl side, 3 side chain; linkers in the order of their positions; H or OH if unused. Non-standard residues stand in square brackets, D forms with d. Residues, ends and D or L forms follow the SMILES beside them. Groups on a side chain read outwards from the residue. *: point of attachment. C18 diacid = O=C(O)CCCCCCCCCCCCCCCCC(=O)*; γGlu = O=C(O)[C@H](CCC(=O)[*:2])N[*:1]; εLys = N[C@@H](CCCCN[*:1])C(=O)[*:2]; Aib = CC(C)(N)C(=O)O
How the values were obtained:
[1] = biological target: T1, human GIP receptor (Homo sapiens, UniProt P48546); test: In vitro functional potency, CRE luciferase reporter, whole BHK cells (hGIPR); type: cell-based; conditions: BHK CRE luc2P hGIPR cells
T1 construct: expressed in transfected cells; host or cells: BHK (parent line BHKTS13), clone BHK CRE luc2P hGIPR
T1 sequence (P48546 22-466): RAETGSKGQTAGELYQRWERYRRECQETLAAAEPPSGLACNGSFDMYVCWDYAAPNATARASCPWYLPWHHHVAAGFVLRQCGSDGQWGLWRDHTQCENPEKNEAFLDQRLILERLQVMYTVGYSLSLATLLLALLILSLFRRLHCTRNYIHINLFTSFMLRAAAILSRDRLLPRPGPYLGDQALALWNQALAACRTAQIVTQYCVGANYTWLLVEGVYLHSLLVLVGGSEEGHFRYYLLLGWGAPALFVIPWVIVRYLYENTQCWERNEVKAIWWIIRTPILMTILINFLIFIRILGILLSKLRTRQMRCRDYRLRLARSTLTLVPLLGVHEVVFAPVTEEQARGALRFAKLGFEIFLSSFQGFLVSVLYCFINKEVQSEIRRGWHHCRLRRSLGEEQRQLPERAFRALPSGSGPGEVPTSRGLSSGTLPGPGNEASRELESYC
How it was run: (§1)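 Potencies are replicate means (n≥2) from non-linear log(agonist) vs response fits of CRE-driven luminescence. Cells were overnight-plated BHK CRE luc2P lines transfected with human GIPR or GLP-1R, 5000/well.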

[2] = Pharmacokinetic study in dogs after oral dosing of tablets with SNAC; type: in vivo, Beagle dogs; conditions: dog, in vivo, po
How it was run: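 The tablets held 3-4 mg compound plus 100-300 mg SNAC and were given to fasted male beagles (6-8 per group); non-compartmental PK per animal.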

[3] = biological target: human GLP-1 receptor (Homo sapiens, UniProt P43220); test: In vitro functional potency, CRE luciferase reporter, whole BHK cells (hGLP-1R); type: cell-based; parameters: expressed in transfected cells; host or cells: BHK (parent line BHKTS13), clone BHK CRE luc2P hGLP-1R; conditions: BHK CRE luc2P hGLP-1R cells
How it was run: as §1

Sequence of human GLP-1 receptor (P43220 24-463): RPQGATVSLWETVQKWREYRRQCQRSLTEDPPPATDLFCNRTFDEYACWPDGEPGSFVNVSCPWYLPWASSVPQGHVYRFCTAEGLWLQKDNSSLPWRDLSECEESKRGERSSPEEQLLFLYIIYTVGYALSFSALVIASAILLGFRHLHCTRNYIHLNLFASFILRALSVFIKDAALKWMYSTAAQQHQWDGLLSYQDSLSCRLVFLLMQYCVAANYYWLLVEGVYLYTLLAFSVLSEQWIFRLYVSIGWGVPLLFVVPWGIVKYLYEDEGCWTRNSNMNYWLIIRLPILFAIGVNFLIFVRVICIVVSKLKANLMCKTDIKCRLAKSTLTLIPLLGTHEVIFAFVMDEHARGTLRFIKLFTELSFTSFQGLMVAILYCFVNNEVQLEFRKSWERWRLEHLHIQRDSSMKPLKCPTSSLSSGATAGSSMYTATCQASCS

## CC[C@H](C)[C@H](NC(=O)[C@H](Cc1ccccc1)NC(=O)[C@H](CCC(=O)O)NC(=O)[C@H](CCC(=O)O)NC(=O)[C@H](C)NC(=O)[C@H](C)NC(=O)[C@H](CCC(N)=O)NC(=O)[C@H](CCCCNC(=O)[C@@H](N)CCCCNC(=O)[C@@H](N)CCCCNC(=O)CC[C@H](NC(=O)CCCCCCCCCCCCCCCCC(=O)O)C(=O)O)NC(=O)[C@H](CCC(=O)O)NC(=O)[C@H](CC(C)C)NC(=O)[C@H](CC(C)C)NC(=O)[C@@H](NC(=O)[C@H](CO)NC(=O)[C@H](Cc1ccc(O)cc1)NC(=O)[C@H](CC(=O)O)NC(=O)[C@H](CO)NC(=O)[C@@H](NC(=O)[C@H](Cc1ccccc1)NC(=O)[C@@H](NC(=O)CNC(=O)[C@H](CCC(=O)O)NC(=O)C(C)(C)NC(=O)[C@@H](N)Cc1ccc(O)cc1)[C@@H](C)O)[C@@H](C)O)[C@@H](C)CC)C(=O)N[C@@H](CC(N)=O)C(=O)N[C@@H](Cc1c[nH]c2ccccc12)C(=O)N[C@@H](CC(C)C)C(=O)N[C@@H](CC(C)C)C(=O)N[C@@H](C)C(=O)NCC(=O)NCC(=O)N1CCC[C@H]1C(=O)N[C@@H](CO)C(=O)N[C@@H](CO)C(=O)NCC(=O)N[C@@H](C)C(=O)N1CCC[C@H]1C(=O)N1CCC[C@H]1C(=O)N1CCC[C@H]1C(=O)N[C@@H](CO)C(=O)O [Compound 25] (H-Y[Aib]EGTFTSDYSILLEK([εLys-εLys-γGlu-C18 diacid])QAAEEFINWLLAGGPSSGAPPPS-OH)
[1]; 0% HSA, read-out: hGIPR, CRE Luc 0% HSA EC50
  EC50: 7.2 pM
[1]; hGIPR, CRE Luc 1% HSA EC50, 1% HSA
  EC50: 263 pM
[2]
  AUC/Dose: 15.2 kg·h/L
  Cmax/Dose: 0.30 kg/L
[2]; male, Beagle
  Tmax: 1.8 h
  half-life: 43 h
[3]; 0% HSA, read-out: hGLP-1R, CRE Luc 0% HSA EC50
  EC50: 15.5 pM
[3]; hGLP-1R, CRE Luc 1% HSA EC50, 1% HSA
  EC50: 740 pM

From US20220177538A1, “CO-AGONISTS AT GLP-1 AND GIP RECEPTORS SUITABLE FOR ORAL DELIVERY” (Novo Nordisk A/S, priority 2020, published 2022)
